In patent publication US20170266186A1, “USE OF INHIBITORS OF BRUTON'S TYROSINE KINASE (BTK)” (Pharmacyclics LLC, priority 2011, published 2017):
Where two headings read alike, the source gives them in different places. Marks after values point to notes of the source that are not given here.

How the values were obtained:
[1] = tested on: subjects with B-cell malignancies
Excerpt: The dose-escalation portion of this open-label trial enrolled subjects with B-cell malignancies (histologies listed in Table 2, below) and is now completed.

[2] = design: species or system human; details: in vivo
[3] = tested on: LY10; experiment: growth inhibition by PCI-32765, LY10; format: cell-based; details: Homo sapiens; LY10, DLBCL, ABC
[4] = tested on: DHL-6; experiment: growth inhibition by PCI-32765, DHL-6; format: cell-based; details: Homo sapiens; DHL-6, DLBCL, GCB
[5] = tested on: DHL-4; experiment: growth inhibition by PCI-32765, DHL-4; format: cell-based; details: Homo sapiens; DHL-4, DLBCL, GCB
[6] = tested on: DHL-10; experiment: growth inhibition by PCI-32765, DHL-10; format: cell-based; details: Homo sapiens; DHL-10, DLBCL, GCB
[7] = tested on: LY19; experiment: growth inhibition by PCI-32765, LY19; format: cell-based; details: Homo sapiens; LY19, DLBCL, GCB (CARD11)
[8] = tested on: DOHH2; experiment: growth inhibition by PCI-32765, DOHH2; format: cell-based; details: Homo sapiens, DOHH-2; DOHH2, FL-transformed
[9] = tested on: WSU-DLCL2; experiment: growth inhibition by PCI-32765, WSU-DLCL2; format: cell-based; details: Homo sapiens, WSUDLCL2; WSU-DLCL2, FL-transformed
[10] = tested on: Mino; experiment: growth inhibition by PCI-32765, Mino; format: cell-based; details: Homo sapiens, Mantle cell
[11] = tested on: Granta-519; experiment: growth inhibition by PCI-32765, Granta-519; format: cell-based; details: Homo sapiens; Granta-519, Mantle cell
[12] = tested on: Jeko-1; experiment: growth inhibition by PCI-32765, Jeko-1; format: cell-based; details: Homo sapiens; Jeko-1, Mantle cell
[13] = tested on: Mino and Jekol cells; experiment: chemokine and cytokine secretion of MCL cell lines after BCR activation or in stromal co-culture; format: cell-based, human; details: following BCR activation or in co-culture
[14] = tested on: pBtk (Y223, Y551), pPLCy2; details: primary MCL and normal B cells
[15] = tested on: primary MCL cells; experiment: adhesion of primary MCL cells; details: Homo sapiens, read-out: inhibition of CXCL12 or CXCL13 activated adhesion to VCAM1 and BCR stimulated adhesion to fibronectin
[16] = tested on: Mino, Jekol and JVM-1 cells; experiment: migration assay, CXCL12-induced; details: Mino and Jekol more sensitive than JVM-1
[17] = tested on: Mino cells; experiment: migration assay, CXCL13 stimulated; details: dose-dependently from 1 nM to 1 μM
[18] = tested on: Jekol and HBL1 cells; experiment: adhesion assay, anti-IgM stimulated; details: Homo sapiens, HBL1, read-out: inhibition of anti-IgM stimulated adhesion onto fibronectin or VCAM1
[19] = tested on: Mino cells; experiment: adhesion assay, chemokine-mediated, Mino; details: Homo sapiens, read-out: inhibition of adhesion to VCAM1 or fibronectin following CXCL12 or CXCL13 activations
[20] = tested on: Jekol cells; experiment: adhesion assay, chemokine-mediated, Jekol; details: Homo sapiens, read-out: inhibition of adhesion to VCAM1 or fibronectin following CXCL12 or CXCL13 activations
[21] = tested on: relapsed/refractory subjects with MCL; experiment: phase II study of PCI-32765 in relapsed/refractory MCL; details: for Discontinuation: Adverse event / Discontinuation: Disease Progression / Death on study: 560 mg/day
[22] = tested on: Btk, PLCy2, Erk, JNK and Akt phosphorylation; experiment: Btk signaling in MCL cell lines after anti-IgM, CXCL12 and CXCL13 stimulation; details: following anti-IgM, CXCL12 and CXCL13 stimulations
[23] = tested on: plasma chemokines and cytokines; experiment: plasma chemokine and cytokine concentrations of ibrutinib treated MCL patients
[24] = tested on: pBtk, pPLCy2 and pAkt; details: alone or in co-culture with M2 cells

With C=CC(=O)N1CCC[C@@H](n2nc(-c3ccc(Oc4ccccc4)cc3)c3c(N)ncnc32)C1 [PCI-32765, (R)-1-(3-(4-amino-3-(4-phenoxyphenyl)-1H-pyrazolo[3,4-d]pyrimidin-1-yl)piperidin-1-yl)prop-2-en-1-one] the CR ([1]; DLBCL (7 patients)) was 0, the “ORR (ITT)” value ([1]; DLBCL (7 patients)) was 29% and the “ORR (evaluable pts)” value ([1]; DLBCL (7 patients)) was 29%. The PD ([1]; DLBCL (7 patients)) was 4, the PR ([1]; DLBCL (7 patients)) was 2 and the CR ([1]; FL (16 patients)) was 3. The “ORR (ITT)” value ([1]; FL (16 patients)) was 38%, the “ORR (evaluable pts)” value ([1]; FL (16 patients)) was 46% and the PD ([1]; FL (16 patients)) was 4. For the same compound, the PR ([1]; FL (16 patients)) was 3, the CR ([1]; MCL (9 patients)) was 3 and the PD ([1]; MCL (9 patients)) was 1. The PR ([1]; MCL (9 patients)) was 4, the CR ([1]; MZL/MALT (4 patients)) was 0 and the “ORR (ITT)” value ([1]; MZL/MALT (4 patients)) was 25%. The “ORR (evaluable pts)” value ([1]; MZL/MALT (4 patients)) was 33%, the PD ([1]; MZL/MALT (4 patients)) was 1 and the PR ([1]; MZL/MALT (4 patients)) was 1. The “ORR (ITT)” value ([1]; Overall (56 patients)) was 54%, the PD ([1]; Overall (56 patients)) was 10 and the CR ([1]; WM (4 patients)) was 0. The PR ([1]; WM (4 patients)) was 3, the “DLTs at the final dose level” value [2] was “No DLTs were observed” and the “dose limiting toxicities (DLTs) documented” value [2] was “Two”. It also gave a GI50 [3] of 100 nM, a GI50 [4] of 180 nM and a GI50 [5] of 530 nM. It also gave a GI50 [6] of 3700 nM, a GI50 [7] of over 10000 nM and a GI50 [8] of 120 nM. For the same compound, the GI50 [9] was 500 nM, the GI50 [10] was 150 nM and the GI50 [11] was over 10000 nM. For the same compound, the GI50 [12] was over 10000 nM, the “production of human IL-10, MDC, MIP-1α, MIP-1β, TNFα, CCL17 and CCL21” value [13] was “dose dependently and potently suppressed” and the “concentrations inhibiting pBtk (Y223, Y551) and reducing pPLCy2 (Y759, Y1217)” value [14] was at least 10 nM. For the same compound, the inhibition at 0.1 µM [15] was 10 to 20%, the CXCL12-induced migration [16] was “dose-dependently inhibited” and the “CXCL13 stimulated migration of Mino cells” value [17] was “significantly inhibited”. The inhibition at 0.1 µM [18] was 50 to 70%, the inhibition at 0.1 µM [19] was 50 to 70% and the inhibition at 0.1 µM [20] was 20 to 30%. The “Discontinuation: Adverse event” value ([21]; Bortezomib-Exposed (N = 27)) was 1 (4) # (%), the “Discontinuation: Disease Progression” value ([21]; Bortezomib-Exposed (N = 27)) was 6 (22) # (%) and the Death on study ([21]; Bortezomib-Exposed (N = 27), pneumonia) was 1 (4) # (%). The Death on study ([21]; Bortezomib-Naïve (N = 41)) was 0 (0) # (%), the “Discontinuation: Adverse event” value ([21]; Bortezomib-Naïve (N = 41)) was 2 (5) # (%) and the “Discontinuation: Disease Progression” value ([21]; Bortezomib-Naïve (N = 41)) was 7 (17) # (%). For the same compound, the Death on study ([21]; Total (N = 68)) was 1 (2) # (%), the “Discontinuation: Adverse event” value ([21]; Total (N = 68)) was 3 (4) # (%) and the “Discontinuation: Disease Progression” value ([21]; Total (N = 68)) was 13 (19) # (%). The myelosuppression ([21]; during the study) was “No significant myelosuppression”, the “phosphorylation of Btk and downstream PLCy2, Erk, JNK and Akt” value [22] was “inhibited” and the “reduction of plasma chemokines such as MDC, MIP-1β, and CXCL13” value ([23]; after one week of treatment) was 40-60%. The “reduction of IL-10 and TNF-α” value ([23]; by the end of the first cycle of treatment) was 50%, the “reduction of chemokines MDC, MIP-1β, CXCL13 and CXCL17, on average” value ([23]; following one week of treatment) was “more than 50%” and the “pBtk, pPLCy2 and pAkt in Mino cells” value [24] was “dose-dependently inhibited”.
